According to patent publication US12544400B2, “Treatment of myopic progression” (University of Utah Research Foundation, priority 2018, dated 2026):

Columns and labels:
human cadaver corneas = assay: cornea radial strain measurement, human cadaver corneas immersed in CuSO4
Description: (§1) Cornea radial strain measurements were performed on human cadaver corneas and on rabbit corneas. Human cadaver corneas (n=2 pairs) were cultured as previously mentioned in Example 1. The treated group was immersed in 0.0016 mg/ml CuSO4 for 2 weeks. The samples also contained a small portion of sclera at both ends. Mineral oil was applied on the surface of the sclera-cornea-sclera strip to minimize tissue dehydration. Rabbit corneas were divided into 4 groups. Two groups were treatment groups receiving either CuSO4 pentahydrate 0.0025 mg/ml three times per day or CuSO4 pentahydrate 0.0025 mg/ml once per day. Two groups served as control receiving only BSS.
(§2) The sample was coupled between a motor and a transducer that applied a controlled pressure from 5-30 mmHg and measured the resultant radial strain. The sample length between the two gripping jaws was approximately 10 mm. Sample geometric information, including width and thickness, was input into the Rheometrics System Analyzer (RSA) control panel. Sample thickness was measured by an ultrasound pachymeter (DGH 550 Pa-chette2; DGH Technology, Exton, PA).

New Zealand white rabbit [1] = conditions: 0.0016 mg/ml 3x/day for 24 days
Description: New Zealand white rabbit right eyes (n=3) were treated with 0.0016 mg/ml CuSO4 3×/day for 24 days. Left eyes were treated with BSS (TID) for 24 days and served as controls. Corneal-OCT pictures were taken at baseline and at day 24.

[2] = tested on: New Zealand white rabbits; assay: rabbit corneal topography (diopter measurements); format: in vivo; conditions: 0.0025 mg/ml once or three times per day or 0.025 mg/ml once per day, 5 weeks; controls no drops, BSS, artificial tears; FIG. 4
Description: Copper sulfate pentahydrate (CuSO4) at 0.0025 mg/ml was administered to New Zealand white rabbits at a dose of once per day and three times per day. Additionally, a high concentration sample of 0.025 mg/ml CuSO4 pentahydrate was administered to New Zealand with rabbits once per day during the treatment period. Three different controls were administered either no drops, BSS, or artificial tears. Each of the 6 groups included 6 test subjects each. Topography images were taken before treatment and weekly for 5 weeks. Diopter measurements were the mean K values and at 3 mm. These values were compared to diopter measurements in laser cross-linked corneas after 1 month and 1 year.

rabbit corneas = assay: cornea radial strain / corneal biomechanics, rabbit corneas after eye drop treatment; format: in vivo; conditions: CuSO4 pentahydrate 0.0025 mg/ml once or three times per day; compared with laser cross-linking; FIG. 3
Description: as §1, §2

rabbits = assay: safety of copper eye drops in vivo (ERG, slit-lamp, AS-OCT, histology); set-up: species or system rabbit; conditions: 0.0025 mg/ml TID or QD, 6 weeks
Description: Copper sulfate (CuSO4) pentahydrate solution was prepared at a concentration of 0.0025 mg/ml and administered three times a day (TID) or once a day (QD) to rabbits. An anterior segment evaluation was performed with slit-lamp biomicroscopy and Heidelberg Spectralis anterior segment optical coherence tomography (AS-OCT). Two rabbits (n=4 eyes) were sacrificed at each of day 1, week 1, week 4, and week 6 for copper levels in eye tissues and compared to control (no drops) rabbits. Aqueous humor, vitreous, retina, cornea, lens, and blood samples were analyzed for copper ions using inductively coupled plasma mass spectrometry (ICP-MS).
Rabbits (n=2) were sacrificed after 42 days by intravenous injection of 0.3 ml/kg euthanasia solution and the eyes were enucleated for histological evaluations and reading for signs of inflammation, tissue damage, scarring and fibrosis. The anterior section of the eyes were fixed in 10% formaldehyde-glutaraldehyde solution, dehydrated in a graded series of alcohol, embedded in paraffin, and sectioned with a microtome. The sections were stained with appropriate staining (hematoxylin and eosin and Masson Trichrome).

lysyl oxidase (LOX) = assay: peroxidase-coupled fluorometric lysyl oxidase activity assay on conditioned medium of cultured corneal stroma cells; format: cell-based; conditions: 0.0016 mg/mL CuSO4 in BSS vs BSS control, fibroblast cells from normal corneas and corneas having low corneal stiffness, FIGS. 1A-1B
Description: Cultured corneal stroma cells from normal corneas and corneas having low corneal stiffness (n=3 each) in 10% FBS DMEM were either exposed to BSS control or 0.0016 mg/mL CuSO4 in balanced salt solution (BSS) then filtered through a 0.25 μm filter. Conditioned culture medium underwent a peroxidase-coupled fluorometric activity assay for lysyl oxidase (LOX).
Tissues were collected under sterile techniques in an operative setting. Tissue samples were stored in a 10 cm tissue culture dish in an Optisol solution. Corneal tissue was suspended in 15% fetal bovine serum (FBS) DMEM/F12 with penicillin/streptomycin. Epithelium and Descemet's membrane were removed mechanically under a stereo microscope. The samples were further cut into small pieces by a surgical scissor, and added to 1 mg/mL collagenase; 10 mL per cornea was used. The sample pieces were plated to a 10 cm tissue culture dish and placed in a tissue culture incubator at 37° C. with 5% CO2. After 5 days, the cells were harvested and plated in 10% FBS DMEM without phenol red.
LOX enzyme activity in culture medium was measured using a peroxidase-coupled fluorometric assay using Amplex red. […] The fluorescence of oxidized Amplex red was recorded every 10 minutes using fluorescence plate reader. After subtracting the background fluorescence, the fluorescence intensity was plotted against the incubation time (FIGS. 1A and 1B).

New Zealand white rabbit [3] = conditions: 0.0025 mg/ml 3 times per day for 6 weeks vs vehicle and control groups; FIG. 8
Description: New Zealand white rabbit right eyes were separated (n=6 per group) into treatment group (0.0025 mg/ml CuSO4 pentahydrate in phosphate buffered ophthalmic solution), vehicle group (phosphate buffered ophthalmic solution), and control group (no drops). Drops were administered 3 times per day for 6 weeks in treatment eyes. Animals were followed weekly for TOP measurements, topography and ocular response analyzer. At the end of the 6 weeks, rabbits were sacrificed and eye was immediately dissected within 30 minutes of sacrifice. Recovered corneas weight was recorded. Samples were reduced with NaBH4 at room temperature then washed with water twice, dried, and hydrolyzed with 6N HCl in vacuo for 18 hours at 110° C. Post hydrolysis, cross-link enrichment was carried out by using a cellulose mini-column method. LNL was measured by mass spectroscopy.

albino guinea pigs = tested on: albino guinea pigs
Description: Progressive myopia occurs more often in albino guinea pigs than in their wild type counterparts, even without imposing diffusers or lenses. Guinea pigs were subjected to a cycle of 12 hours of light/12 hours of dark. An eye drop including 0.0025 mg/ml CuSO4 pentahydrate in phosphate buffered ophthalmic solution was administered at approximately 2 weeks of age to the right eyes (OD) of albino guinea pigs (n=4). Left eyes (OS) received control drops (ophthalmic vehicle only). Eye drops (approximately 30 μL) were administered 3 times per day for approximately 6 weeks. Refractive error was measured by a pediatric ophthalmologist prior to treatment on day 1 and at subsequent timepoints according to the schedule depicted in FIGS. 7A-7B. […] FIGS. 7A-7B present average refractive error measurements for the test subjects in each eye with error bars and linear fit, respectively.

[4] = 0.0016 mg/ml CuSO4 for 2 weeks vs untreated, FIG. 2

Compound	corneal stiffness (human cadaver corneas; [4])	radial strain (human cadaver corneas; [4])	average peak radial strain induced by ocular pulse, treated vs untreated corneas (human cadaver corneas; at 20 mmHg)	increase in corneal strength (human cadaver corneas; from peak radial strain at 20 mmHg, treated vs untreated)	cornea epithelial layer by OCT / gross toxicity to the corneas (New Zealand white rabbit [1])	slit-lamp examination (New Zealand white rabbit [1])	central cornea flattening by OCT (New Zealand white rabbit [1]; right eyes n=3 vs BSS left eyes, FIGS. 6A-6F)	diopter measurements (mean K and at 3 mm), change vs control groups [2]	corneal biomechanics (rabbit corneas)	toxicity in dissected eye tissues (rabbits)	corneal strength (human cadaver corneas; FIG. 2 legend)	LOX enzyme activity (lysyl oxidase (LOX))	LOX enzyme activity (lysyl oxidase (LOX); listed as copper)	LNL crosslinking in corneas (New Zealand white rabbit [3])	histopathological analysis of dissected eyes (albino guinea pigs; 0.0025 mg/ml 3 times per day, approximately 6 weeks, data not shown)	myopic progression (average refractive error) in the treatment eye (albino guinea pigs; 0.0025 mg/ml eye drop 3 times per day for approximately 6 weeks, OD vs vehicle OS, FIGS. 7A-7B)	IOP measurements (albino guinea pigs; all eyes during the study, within normal limits, data not shown)
O=S(=O)([O-])[O-].[Cu+2] [CuSO4, copper (II) sulfate]	marked increase	decrease	about 1.5 times lower	~50%	no gross toxicity	no inflammation or opacification	cornea flattening in all 3 treatment eyes	greater decrease									
[Cu] [Cu, copper]								decreased	improved	no observed toxicity	increased	increased	dramatically increased				
O.O.O.O.O.O=S(=O)([O-])[O-].[Cu+2] [CuSO4 pentahydrate, copper (II) sulfate pentahydrate]									comparable to that seen with laser cross-linking					increased	no observed toxicity	effective in reducing myopic progression	15-25 mmHg
